# Active and inactive are the calls of the source.
# Legend:
# P388/ADR = test: cells; format: functional; conditions: Mus musculus
# SN12K1 = test: cells; format: functional; conditions: Homo sapiens
# [1] = target: T1, High affinity choline transporter 1 (Homo sapiens, UniProt Q9GZV3); test: human choline transporter blockers, potency – cell-based, 5-point CRC, membrane potential dye, dose response (AID 504840); format: functional
# T1 sequence (Q9GZV3 whole entry): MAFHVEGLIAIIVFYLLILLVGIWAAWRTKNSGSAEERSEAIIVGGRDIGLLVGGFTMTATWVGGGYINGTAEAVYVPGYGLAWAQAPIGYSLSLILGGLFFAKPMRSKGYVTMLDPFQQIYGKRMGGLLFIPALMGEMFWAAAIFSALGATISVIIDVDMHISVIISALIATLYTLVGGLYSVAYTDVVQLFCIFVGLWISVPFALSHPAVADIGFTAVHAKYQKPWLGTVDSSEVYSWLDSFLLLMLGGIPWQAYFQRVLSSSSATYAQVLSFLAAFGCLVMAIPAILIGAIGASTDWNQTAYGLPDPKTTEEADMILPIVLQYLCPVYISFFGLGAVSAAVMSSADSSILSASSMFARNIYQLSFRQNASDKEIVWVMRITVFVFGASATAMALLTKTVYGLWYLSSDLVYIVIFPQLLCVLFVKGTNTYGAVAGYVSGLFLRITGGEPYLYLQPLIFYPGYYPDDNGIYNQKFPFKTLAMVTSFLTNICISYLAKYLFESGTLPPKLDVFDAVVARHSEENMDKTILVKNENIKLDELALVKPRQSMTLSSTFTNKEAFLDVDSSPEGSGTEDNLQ
# Aminopeptidase N = target: T2, Aminopeptidase N (Plasmodium falciparum FcB1/Columbia, UniProt O96935); test: malaria alanyl aminopeptidase activity blockers – biochemical, fluorogenic H-Leu-NHMec substrate, 1536-well (AID 1445); design: species or system Plasmodium falciparum 3D7, 3D7
# T2 sequence (O96935 whole entry): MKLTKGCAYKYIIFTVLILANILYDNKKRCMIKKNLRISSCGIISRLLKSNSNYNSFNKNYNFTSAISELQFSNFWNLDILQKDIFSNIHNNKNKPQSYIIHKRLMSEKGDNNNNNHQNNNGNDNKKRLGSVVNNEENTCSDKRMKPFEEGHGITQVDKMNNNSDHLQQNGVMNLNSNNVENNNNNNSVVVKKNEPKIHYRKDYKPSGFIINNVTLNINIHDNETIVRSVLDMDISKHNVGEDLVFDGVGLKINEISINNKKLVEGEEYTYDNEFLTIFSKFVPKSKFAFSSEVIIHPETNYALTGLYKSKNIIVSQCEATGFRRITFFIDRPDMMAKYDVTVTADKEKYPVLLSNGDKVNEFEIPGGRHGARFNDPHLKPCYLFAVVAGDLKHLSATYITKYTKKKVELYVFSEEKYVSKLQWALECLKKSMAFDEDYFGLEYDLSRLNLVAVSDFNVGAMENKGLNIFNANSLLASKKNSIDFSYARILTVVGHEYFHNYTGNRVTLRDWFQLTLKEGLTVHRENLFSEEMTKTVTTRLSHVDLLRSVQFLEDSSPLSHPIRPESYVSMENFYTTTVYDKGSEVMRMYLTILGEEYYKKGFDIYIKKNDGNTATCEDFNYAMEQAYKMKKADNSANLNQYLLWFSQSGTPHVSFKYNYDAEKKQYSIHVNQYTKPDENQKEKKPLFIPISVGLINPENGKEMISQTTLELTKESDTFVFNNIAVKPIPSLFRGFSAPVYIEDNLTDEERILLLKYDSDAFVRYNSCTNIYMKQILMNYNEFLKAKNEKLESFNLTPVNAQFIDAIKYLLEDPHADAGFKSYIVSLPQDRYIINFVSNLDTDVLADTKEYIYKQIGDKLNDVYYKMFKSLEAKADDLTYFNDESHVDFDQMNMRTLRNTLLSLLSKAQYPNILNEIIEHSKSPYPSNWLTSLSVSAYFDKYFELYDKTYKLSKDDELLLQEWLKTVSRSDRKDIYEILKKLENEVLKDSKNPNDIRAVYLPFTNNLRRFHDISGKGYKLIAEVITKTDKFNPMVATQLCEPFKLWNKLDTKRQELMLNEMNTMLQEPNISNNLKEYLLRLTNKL
# [2] = THP-1 cell cytotoxicity, dose response, cytotoxicity control for non-replicating M. tuberculosis project (AID 489025); format: functional
# [3] = target: T3, Ubiquitin-conjugating enzyme E2 N (Homo sapiens, UniProt P61088); format: functional;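 note: Dose-response confirmation in a TR-FRET assay detecting UBC13-driven polyubiquitin chain formation, inhibition measured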
# T3 sequence (P61088 whole entry): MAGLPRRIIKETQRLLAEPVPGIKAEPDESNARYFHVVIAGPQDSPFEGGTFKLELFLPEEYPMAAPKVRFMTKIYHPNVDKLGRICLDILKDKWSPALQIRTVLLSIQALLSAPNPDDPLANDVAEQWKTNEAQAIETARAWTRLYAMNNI
# cells = format: functional
# [4] = HEK-293T viability loss after treatment – luminescence, T-cell screen hits, cytotoxicity control for TCR NF-kB inhibitor project, dose response (AID 489026); format: functional, cell-based;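 note: cells exposed to compound about 14 hours before the viability readout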
# [5] = target: Heat shock protein HSP 90-alpha (Homo sapiens, UniProt P07900); format: functional, organism-based
# Nonstructural protein 1 = Nonstructural protein 1 (Influenza A virus, UniProt Q194T2); format: functional, Influenza A virus (A/California/07/2009(H1N1))
# Nonstructural protein 1, sequence (Q194T2 whole entry): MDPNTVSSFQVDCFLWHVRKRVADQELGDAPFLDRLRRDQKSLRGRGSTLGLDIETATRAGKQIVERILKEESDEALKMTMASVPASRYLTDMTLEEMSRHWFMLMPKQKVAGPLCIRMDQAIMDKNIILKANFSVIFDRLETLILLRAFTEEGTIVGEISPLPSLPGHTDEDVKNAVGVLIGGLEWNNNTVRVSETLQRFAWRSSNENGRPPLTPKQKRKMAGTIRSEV
# [6] = target: T4, Microphthalmia-associated transcription factor (Homo sapiens, UniProt O75030); test: reducers of TRPM1 reporter luminescence, concentration series – cell-based, SK-MEL-5, cherry-picked, set 3, MITF inhibitor project, dose response (AID 493073); format: functional;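 note: SK-MEL-5 melanoma cells with luciferase driven by the MITF target TRPM1 promoter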
# T4 sequence (O75030 whole entry): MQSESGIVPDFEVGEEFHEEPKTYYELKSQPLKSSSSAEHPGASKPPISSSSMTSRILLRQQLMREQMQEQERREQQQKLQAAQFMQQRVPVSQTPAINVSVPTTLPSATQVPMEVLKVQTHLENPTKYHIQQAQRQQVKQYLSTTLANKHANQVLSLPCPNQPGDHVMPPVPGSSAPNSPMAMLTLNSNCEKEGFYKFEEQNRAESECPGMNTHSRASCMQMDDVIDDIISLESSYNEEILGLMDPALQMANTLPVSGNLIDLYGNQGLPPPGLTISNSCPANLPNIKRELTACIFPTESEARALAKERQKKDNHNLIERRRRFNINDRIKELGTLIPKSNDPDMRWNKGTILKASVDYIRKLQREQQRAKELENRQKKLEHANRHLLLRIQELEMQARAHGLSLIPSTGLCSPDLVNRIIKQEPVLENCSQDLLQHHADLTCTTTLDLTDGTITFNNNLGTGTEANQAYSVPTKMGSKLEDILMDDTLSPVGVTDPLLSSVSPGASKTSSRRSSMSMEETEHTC
# [7] = reduction of Shn3 3'UTR-driven luciferase in osteoblasts – cell-based, Clone20 osteoblasts, firefly luciferase, cherry-picked, dose response (AID 624132); format: functional;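 note: firefly luciferase luminescence from reporter carrying the Shn3 3'UTR in osteoblasts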
# [8] = loss of viability in HepG2 cells – cell-based, CellTiter-Glo, cherry-picked, cytotoxicity control for Shn3 inhibitor project, dose response (AID 624134); format: functional
# [9] = non-specific 3'UTR reporter inhibition in Clone20-Shn3RL – cell-based, Renilla luciferase, cherry-picked, counter-screen for Shn3 inhibitor project, dose response (AID 624133); format: functional
# INS1 = test: INS-1E survival protection against cytokine death – cell-based, luminescence, retest, dose response (AID 449756); format: functional; conditions: Rattus norvegicus;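 note: cell death triggered by IL-1 beta plus TNF-alpha plus IFN-gamma mixture; protective hits raise ATP signal compared with cytokine alone wells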
# [10] = Trypanosoma cruzi growth suppression in host cells – NIH3T3 host cells, beta-gal luminescence, confirmation (AID 2044); format: functional, cell-based;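 note: intracellular parasites grown in NIH/3T3 mouse fibroblasts as host cells; luminescent beta-galactosidase reporter signal from transgenic T. cruzi replicating inside host cells; inhibitors lower the luminescence signal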
# [11] = NIH3T3 cell viability loss – ATP luminescence, mouse fibroblasts, counter-screen, dose response (AID 2010); format: functional, cell-based;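 note: cells exposed to compound for about 90 hours before reading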
# [12] = A549 cell cytotoxicity, dose response, cytotoxicity control, plate reader, cherry-pick, antagonist series (AID 743412); format: functional, cell-based
# [13] = blockers of bursicon-stimulated LGR2 cAMP reporter – cell-based, HEK293, CRE-luciferase reporter, cherry pick, set 2, dose response (AID 743343); format: functional;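 note: transfected cells were stimulated with diluted bursicon conditioned medium after compound addition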
# [14] = blockade of melanocortin 4 receptor signaling – cell-based, plate reader, cherry pick, counter-screen for LGR2 antagonist project, dose response (AID 743444); format: functional;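 note: transfected HEK 293 cells stimulated with alpha-MSH peptide; potency of inhibitors of the alpha-MSH evoked signal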
# BJ [15] = test: BJ-TERT fibroblast viability loss – cell-based, RAS-independent, luminescence, dose response (AID 1933); format: functional; conditions: Homo sapiens
# BJ [16] = test: cells; format: functional, cell-based; conditions: Homo sapiens
# BJ [17] = test: BJ-TERT-LT-ST fibroblast viability loss – cell-based, RAS-independent, luminescence, dose response (AID 1935); format: functional; conditions: Homo sapiens;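 note: BJ fibroblasts immortalized with TERT plus LT and ST oncogenes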
# [18] = DRD fibroblast viability loss – cell-based, non-viral oncogenic, luminescence, dose response (AID 1934); format: functional; conditions: Homo sapiens
# [19] = Luminescence Cell-Based Dose Retest to Confirm Inhibitors of Cancer Stem Cells. [Related pubchem assays (depositor defined):AID2717, AID2721]; format: functional; conditions: Homo sapiens
smiles,measurement,setting,value
O=C(O)/C=C/c1c[nH]cn1,GI50,P388/ADR,> 500 µM (inactive)
same,GI50,SN12K1,> 500 µM (inactive)
CCc1c(C)nc2ccccc2c1O,IC50,[1],13.2 µM (active)
COCCNc1oc(/C=C/c2ccccc2)nc1C#N,IC50,Aminopeptidase N,36.7 µM (active)
NC1=NC[C@H](Cc2ccc(O)cc2)N1CCc1cccc2ccccc12,CC50,[2],> 40 µM (active)
same,IC50,[3],> 20 µM (inactive)
same,IC50,cells,9.5 µM (active)
Cc1ccc(N=C(N)Nc2nc(O)cc(CSc3nnc(C)s3)n2)c(C)c1,IC50,[4],> 80 µM (inactive)
COc1cc2cnc(-c3ccccc3)c(C(=O)c3ccc(F)cc3)c2cc1OC,AC50,[5],2.12 µM (active)
COC(=O)c1ccc(CSc2nc3c(c(=O)n2-c2ccccc2)SCC3)o1,IC50,Nonstructural protein 1,> 100 µM (active)
O=C(CSc1nnnn1-c1ccc(O)cc1)Nc1cccc(S(=O)(=O)N2CCCC2)c1,AC50,[6],50.2 µM (active)
O=C(c1ccc2c(=O)n(-c3ccccc3)c(=S)[nH]c2c1)N1CCCCC1,AC50,[7],1.44 µM (active)
same,AC50,[8],64.2 µM (active)
same,AC50,[9],3.14 µM (active)
O=C(CCSc1nnc(-c2ccncc2)o1)Nc1ccc(Cl)cc1,IC50,cells,29.5 µM (active)
same,AC50,[5],1.65 µM (active)
Cc1ccc(C[S+]([O-])Cc2ccc(C(=O)NC3CCCCCC3)o2)cc1 (centres undefined),IC50,[1],14.5 µM (active)
O=C(Nn1c(SCc2ccc(F)cc2)nc2ccsc2c1=O)c1ccccc1,IC50,Aminopeptidase N,55.6 µM (active)
CC(C)(C)C(=O)/C(=C/c1ccc(Cl)cc1)n1cncn1,AC50,[7],3.75 µM (active)
same,AC50,[8],18 µM (active)
same,AC50,[9],10.8 µM (active)
Cc1ccc(-c2cc(C(F)F)n3ncc(C(=O)N4CCc5ccccc54)c3n2)cc1,IC50,[4],> 80 µM (inactive)
COc1ccc(CCN2C(=O)C3C4C=CC(C3C2=O)C2C(=O)N(CCc3ccc(OC)c(OC)c3)C(=O)C42)cc1OC (centres undefined),IC50,[4],> 80 µM (inactive)
CN(C)Cc1c(O)c(Cl)cc2c3c(c(=O)oc12)CCCC3,IC50,Aminopeptidase N,30.1 µM (active)
Cc1ccc(NC(=O)C2CCN(S(=O)(=O)c3ccc(N4CCCC4=O)cc3)CC2)cc1Cl,AC50,INS1,1.93 µM (active)
same,AC50,[7],0.549 µM (active)
same,AC50,[8],> 70 µM (inactive)
same,AC50,[9],0.808 µM (active)
CCOC(=O)C1=C(COC(=O)c2ccc(OC(C)C)cc2)NC(=O)NC1C (centres undefined),IC50,[1],16.6 µM (active)
Cc1ccc(OCCCCn2ccnc2)c(Cl)c1,EC50,[10],1.37 µM (active)
same,EC50,[11],> 60 µM (not active)
same,CC50,[2],> 40 µM (active)
same,IC50,cells,39.1 µM (active)
O=C(Sc1cccc2cccnc12)c1ccc(F)cc1,IC50,[4],> 80 µM (inactive)
Cc1cc([N+](=O)[O-])c(NC2CCCCC2)c([N+](=O)[O-])c1,IC50,Nonstructural protein 1,41.5 µM (active)
Oc1ccc(C=NNC(=S)Nc2ccc(F)cc2)c(O)c1,IC50,Nonstructural protein 1,14.6 µM (active)
O=C1C=CC(=O)N1c1ccc2c(c1)Cc1cc(F)ccc1-2,AC50,[5],< 0.195 µM (active)
Cc1ccc(S(=O)(=O)N(C)C[C@H]2Oc3c(cccc3N(C)C)C(=O)N([C@@H](C)CO)C[C@@H]2C)cc1,AC50,[12],> 52 µM (inactive)
same,AC50,[13],0.726 µM (active)
same,AC50,[14],0.341 µM (active)
CCCC(=O)NC(c1ccc(OC)c(OC)c1)c1cc(Cl)c2cccnc2c1O (centres undefined),EC50,[10],1.2 µM (active)
same,EC50,[11],< 6 µM (inconclusive)
same,AC50,[6],9.06 µM (active)
same,AC50,[5],12.4 µM (active)
same,AC50,INS1,1.69 µM (active)
C[C@H](CO)N1C[C@H](C)[C@H](CN(C)C(=O)CN2CCOCC2)Oc2ncc(C#CCN(C)C)cc2C1=O,AC50,[12],> 52 µM (inactive)
N#C[C@@H]1[C@H](c2ccc(C#CC3CCCCC3)cc2)[C@@H](CO)N1C(=O)c1cccc(F)c1,AC50,[12],35.8 µM (active)
same,AC50,[14],36.1 µM (active)
CC(C)(C)c1nnc(N/N=C/c2ccccc2O)n(N)c1=O,EC50,BJ [15],1.86 µM (active)
same,EC50,BJ [16],8.53 µM (inconclusive)
same,EC50,BJ [17],15.1 µM (active)
same,EC50,[18],2.47 µM (active)
same,IC50,[4],> 80 µM (inactive)
same,IC50,Nonstructural protein 1,5.93 µM (active)
C=CCN1C(=O)/C(=N\Nc2c(C)n(C)n(-c3ccccc3)c2=O)C(=O)NC1=S,IC50,Nonstructural protein 1,2.29 µM (active)
Cc1cc(C)n(CC(=O)N/N=C/c2cc([N+](=O)[O-])ccc2O)n1,IC50,Nonstructural protein 1,10.8 µM (active)
CCCOc1ccc(/C=N/Nc2cc(N3CCOCC3)ncn2)c(O)c1,AC50,[19],2.87 µM (active)
same,IC50,[4],> 80 µM (inactive)
same,AC50,INS1,2.27 µM (active)
